The target of the experiment is Phosphodiesterase 4 (Homo sapiens, UniProt P27815+Q08499+Q07343+Q08493). Nature of the experiment: Inhibition of PDE4 isolated from human U937 cells using [3H]-cAMP as substrate after 30 mins by liquid scintillation counting analysis. It counts as cell-free. To be noted: u-937.

Each structure is given as a SMILES string.

The IC50 is the midpoint of a concentration-inhibition curve. Read a high IC50 as lower potency. `N#Cc1ccc(Cc2cc(C(=O)C(=O)Nc3c(Cl)cncc3Cl)c3cc(Cl)ccn23)cc1` displayed an IC50 of 82 nM.

`O=C(Nc1c(Cl)cncc1Cl)C(=O)c1cn(Cc2ccc(F)cc2)c2ccc(O)cc12` [AWD-12-281] gave an IC50 of 14 nM. Next, `CC(C)c1ccc(Cc2cc(C(=O)C(=O)Nc3cccnc3)c3ccccn23)cc1`: 362 nM; `O=C(Nc1c(Cl)cncc1Cl)C(=O)c1cc(Cc2ccc(O)cc2)n2ccccc12`: 15 nM.

For `O=C(Nc1c(Cl)cncc1Cl)C(=O)c1cc(Cc2ccc(O)cc2)n2ccc(Cl)cc12`, the IC50 was 2 nM. Next, `O=C(Nc1c(Cl)c[n+]([O-])cc1Cl)C(=O)c1cc(Cc2ccc(F)cc2)n2ccc(F)cc12`: 18 nM; `O=C(Nc1cccnc1)C(=O)c1cc(Cc2ccc([N+](=O)[O-])cc2)n2ccccc12`: 569 nM. In turn, `O=C(Nc1cccnc1)C(=O)c1cc(Cc2ccccc2)n2ccccc12` yielded an IC50 of 348 nM.

Molecule `N#Cc1ccc(Cc2cc(C(=O)C(=O)Nc3cccnc3)c3ccccn23)cc1` yielded an IC50 of 719 nM.

In the case of `O=C(Nc1c(Cl)cncc1Cl)C(=O)c1cc(Cc2ccc(Cl)cc2)n2ccccc12`, the IC50 was found to be 16 nM. Next, `O=C(Nc1c(Cl)c[n+]([O-])cc1Cl)C(=O)c1cc(Cc2ccc(F)cc2)n2ccc(Cl)cc12`: 54 nM; `O=C(Nc1c(Cl)cncc1Cl)C(=O)c1cc(Cc2ccc(F)cc2)n2ccc(F)cc12`: 13 nM. Next, `COc1ccc(NC(=O)C(=O)c2cc(Cc3ccc(C#N)cc3)n3ccccc23)cn1`: 1500 nM; `N#Cc1ccc(Cc2cc(C(=O)C(=O)Nc3c(Cl)cncc3Cl)c3ccccn23)cc1`: 116 nM; `O=C(Nc1c(Cl)c[n+]([O-])cc1Cl)C(=O)c1cc(Cc2ccc(O)cc2)n2ccccc12`: 29 nM. `COc1ccc(Cc2cc(C(=O)C(=O)Nc3cccnc3)c3ccccn23)cc1` displayed a 50% inhibitory concentration (IC50) of 447 nM. Next, `O=C(Nc1c(Cl)cncc1Cl)C(=O)c1cc(Cc2ccc(Cl)cc2)n2ccc(Cl)cc12`: 26 nM; `O=C(Nc1c(Cl)cc(C(F)(F)F)cc1Cl)C(=O)c1cc(Cc2ccc(F)cc2)n2ccccc12`: 10000 nM; `O=C(Nc1cccnc1)C(=O)c1cc(Cc2ccc(C(F)(F)F)cc2)n2ccccc12`: 372 nM.

Turning to `COc1ccn2c(Cc3ccc(Cl)cc3)cc(C(=O)C(=O)Nc3cccnc3)c2c1`, the IC50 was determined as 1000 nM. `COc1ccc(Cc2cc(C(=O)C(=O)Nc3c(Cl)cncc3Cl)c3cc(Cl)ccn23)cc1`: the IC50 is 12 nM. Next, `O=C(Nc1c(Cl)cccc1Cl)C(=O)c1cc(Cc2ccc(F)cc2)n2ccccc12`: 10000 nM; `COc1ccnc(OC)c1NC(=O)C(=O)c1cc(Cc2ccc(C#N)cc2)n2ccccc12`: 10000 nM. Next, `O=C(Nc1cccnc1)C(=O)c1cc(Cc2ccc(Cl)cc2)n2ccccc12`: 165 nM; `Nc1ccc(Cc2cc(C(=O)C(=O)Nc3cccnc3)c3ccccn23)cc1`: 824 nM; `COc1ccc(Cc2cc(C(=O)C(=O)Nc3c(Cl)c[n+]([O-])cc3Cl)c3ccccn23)cc1`: 80 nM. Next, `O=C(Nc1c(Cl)c[n+]([O-])cc1Cl)C(=O)c1cc(Cc2ccc(F)cc2)c2ccccn12`: 29 nM.

In turn, `O=C(Nc1c(Cl)c[n+]([O-])cc1Cl)C(=O)c1cc(Cc2ccc(Cl)cc2)n2ccccc12` had an IC50 of 19 nM. Next, `N#Cc1ccc(Cc2cc(C(=O)C(=O)Nc3c(Cl)ccnc3Cl)c3ccccn23)cc1`: 250 nM; `O=C(Nc1cccnc1)C(=O)c1cc(Cc2ccc(O)cc2)n2ccccc12`: 327 nM; `O=C(Nc1cccnc1)C(=O)c1cc(Cc2ccc(F)cc2)n2ccccc12`: 341 nM. Next, `O=C(Nc1cccnc1)C(=O)c1cc(Cc2ccc(F)cc2)n2ccc(Cl)cc12`: 239 nM; `O=C(Nc1cccnc1)C(=O)c1cc(Cc2ccc(F)cc2)n2ccc(O)cc12`: 414 nM; `O=C(Nc1c(Cl)cncc1Cl)C(=O)c1cc(Cc2ccc(F)cc2)n2ccc(Cl)cc12`: 28 nM. Next, `N#Cc1ccc(Cc2cc(C(=O)C(=O)Nc3cccnc3Cl)c3ccccn23)cc1`: 4700 nM. The molecule `O=C(Nc1c(Br)ccnc1Br)C(=O)c1cc(Cc2ccc(F)cc2)n2ccccc12` gave an IC50 of 10000 nM. Next, `O=C(Nc1c(Cl)ccnc1Cl)C(=O)c1cc(Cc2ccc(Cl)cc2)n2ccccc12`: 84 nM; `O=C(Nc1c(Cl)cncc1Cl)C(=O)c1cc(Cc2ccc(F)cc2)c2ccccn12`: 6 nM; `COc1ccc(Cc2cc(C(=O)C(=O)Nc3c(Cl)cncc3Cl)c3ccccn23)cc1`: 40 nM.

For the origin of these results see ChEMBL document CHEMBL3217486, “Novel indolizine compounds as potent inhibitors of phosphodiesterase IV (PDE4): structureactivity relationship” (Medchemcomm, 2011).
